Structures can show the parent of a compound that is named as a salt.
System: α2δ subunit
Experiment: radioligand binding assay using [3H]gabapentin and the α2δ subunit
Settings: [3H]gabapentin radioligand; α2δ subunit from porcine brain tissue

| Compound | α2δ binding affinity [µM] |
| --- | --- |
| NCC1(CC(=O)O)C[C@H]2CCC[C@@H]2C1 (racemic) [(±)-(1α,5β)(2-Aminomethyl-octahydro-pentalen-2-yl)-acetic Acid Hydrochloride] | >10 |
| NCC1(CC(=O)O)C[C@H]2CC[C@@H]2C1 (racemic) [(±)-(1α,5β)(3-aminomethyl-bicyclo[3.2.0]hept-3-yl)-ascetic Acid Hydrochloride] | 2.86 |
| NCC1(CC(=O)O)C[C@H]2CCCC[C@@H]2C1 (racemic) [(±)-(1α,6β)(2-Aminomethyl-octahydro-inden-2-yl)-acetic Acid Hydrochloride] | >10 |
| NC[C@]1(CC(=O)O)C[C@H]2CCC[C@H]2C1 [(1α,3α,5α)(2-Aminomethyl-octahydro-pentalen-2-yl)-acetic Acid Hydrochloride] | 1.58 |
| NC[C@]1(CC(=O)O)C[C@H]2CC[C@H]2C1 [(1α,3α,5α)(3-Aminomethyl-bicyclo[3.2.0]hept-3-yl)-acetic Acid Hydrochloride] | 0.038 |
| NC[C@@]1(CC(=O)O)C[C@H]2CC[C@H]2C1 [(1α,3β,5α)(3-Aminomethyl-bicyclo[3.2.0]hept-3-yl)-acetic acid hydrochloride] | 0.332 |
| NC[C@]1(CC(=O)O)C[C@H]2CCCC[C@H]2C1 [(1α,6α,8α)(2-Aminomethyl-octahydro-inden-2-yl)-acetic acid hydrochloride] | 0.72 |
| NC[C@@]1(CC(=O)O)C[C@H]2CCCC[C@H]2C1 [((1α,6α,8β)(2-Aminomethyl-octahydro-inden-2-yl)-acetic Acid Hydrochloride] | >10 |

System: carrageenan-induced hyperalgesia model
Experiment: Carrageenin-induced hyperalgesia, rat paw pressure test (Randall-Selitto)
Assay type: in vivo
Settings: dosed orally at 30 mg/kg; 1 hour postdose
Experimental: Carrageenin-Induced Hyperalgesia
Nociceptive pressure thresholds were measured in the rat paw pressure test using an analgesimeter (Randall-Selitto method: Randall L. O. and Selitto J. J., “A method for measurement of analgesic activity on inflamed tissue,” Arch. Int. Pharmacodyn., 1957;4:409-419). Male Sprague-Dawley rats (70-90 g) were trained on this apparatus before the test day. Pressure was gradually applied to the hind paw of each rat and nociceptive thresholds were determined as the pressure (g) required to elicit paw withdrawal. A cutoff point of 250 g was used to prevent any tissue damage to the paw. On the test day, two to three baseline measurements were taken before animals were administered 100 μL of 2% carrageenin by intraplantar injection into the right hind paw.
(R)-2-Aza-spiro[4.5]decane-4-carboxylic acid hydrochloride was tested in the above carrageenan-induced hyperalgesia model. The compound was dosed orally at 30 mg/kg, and 1 hour postdose gave a percent of maximum possible effect ([…]) of 53%. At 2 hours postdose, it gave only 4.6% of MPE.

| Compound | percent of maximum possible effect (APE) [%] |
| --- | --- |
| Cl.O=C(O)[C@H]1CNCC12CCCCC2 [(R)-2-Aza-spiro[4.5]decane-4-carboxylic acid hydrochloride] | 53 |

Same assay, conditions: dosed orally at 30 mg/kg; 2 hours postdose

| Compound | % of MPE [%] |
| --- | --- |
| Cl.O=C(O)[C@H]1CNCC12CCCCC2 [(R)-2-Aza-spiro[4.5]decane-4-carboxylic acid hydrochloride] | 4.6 |

Reference: patent US6835751B2, “Bicyclic amino acids as pharmaceutical agents” (Warner-Dambert Company LLC, priority 1999, dated 2004)
